Measurements reported in patent US11572590B2, “Methods for evaluating tumor cell spheroids using 3D microfluidic cell culture device” (Dana-Farber Cancer Institute, Inc., priority 2017, dated 2023).
Where two headings read alike, the source gives them in different places.

What was measured:
Test in all cases: SelectScreen Kinase Profiling, single point inhibition and IC50 for off-target kinases
Format in all cases: biochemical
[1] = target: T1, off-target kinases (Homo sapiens, UniProt O15264); conditions: MAPK13 (p38 delta), ZLYTE, ATP Km app
T1 sequence (O15264 1-365): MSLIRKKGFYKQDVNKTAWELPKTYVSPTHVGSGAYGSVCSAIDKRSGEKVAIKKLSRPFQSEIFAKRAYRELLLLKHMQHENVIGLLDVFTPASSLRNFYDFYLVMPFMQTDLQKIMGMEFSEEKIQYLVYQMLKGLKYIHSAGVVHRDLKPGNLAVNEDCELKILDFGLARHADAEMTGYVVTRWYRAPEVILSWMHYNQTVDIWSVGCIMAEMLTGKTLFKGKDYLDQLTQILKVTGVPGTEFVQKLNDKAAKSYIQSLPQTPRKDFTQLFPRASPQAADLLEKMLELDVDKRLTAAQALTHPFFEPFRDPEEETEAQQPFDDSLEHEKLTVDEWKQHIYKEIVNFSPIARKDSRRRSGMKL

[2] = target: off-target kinases (Homo sapiens, UniProt Q8IU85); conditions: CAMK1D (CaMKI delta), ZLYTE, ATP Km app
[3] = target: off-target kinases (Homo sapiens, UniProt Q9Y6E0); conditions: STK24 (MST3), ZLYTE, ATP Km app
[4] = target: off-target kinases (Homo sapiens, UniProt Q9UEW8); conditions: STK39 (STLK3), LanthaScreen
[5] = target: off-target kinases (Homo sapiens, UniProt O43353); conditions: RIPK2, LanthaScreen Binding
[6] = target: off-target kinases (Homo sapiens, UniProt P32298); conditions: GRK4; Cmpd1 1000 μM; ATP Km app; ZLYTE
[7] = target: off-target kinases (Homo sapiens, UniProt P37023); conditions: ACVRL1 (ALK1), LanthaScreen Binding
[8] = target: off-target kinases (Homo sapiens, UniProt P54646)
[9] = target: off-target kinases (Homo sapiens, UniProt O75582); conditions: RPS6KA5 (MSK1), ZLYTE, ATP Km app
[10] = target: off-target kinases (Homo sapiens, UniProt O00443); conditions: PIK3C2A (PI3K-C2 alpha); Cmpd1 1000 μM; ATP Km app; Adapta
off-target kinases (Homo sapiens, UniProt O00443), sequence (O00443 whole entry): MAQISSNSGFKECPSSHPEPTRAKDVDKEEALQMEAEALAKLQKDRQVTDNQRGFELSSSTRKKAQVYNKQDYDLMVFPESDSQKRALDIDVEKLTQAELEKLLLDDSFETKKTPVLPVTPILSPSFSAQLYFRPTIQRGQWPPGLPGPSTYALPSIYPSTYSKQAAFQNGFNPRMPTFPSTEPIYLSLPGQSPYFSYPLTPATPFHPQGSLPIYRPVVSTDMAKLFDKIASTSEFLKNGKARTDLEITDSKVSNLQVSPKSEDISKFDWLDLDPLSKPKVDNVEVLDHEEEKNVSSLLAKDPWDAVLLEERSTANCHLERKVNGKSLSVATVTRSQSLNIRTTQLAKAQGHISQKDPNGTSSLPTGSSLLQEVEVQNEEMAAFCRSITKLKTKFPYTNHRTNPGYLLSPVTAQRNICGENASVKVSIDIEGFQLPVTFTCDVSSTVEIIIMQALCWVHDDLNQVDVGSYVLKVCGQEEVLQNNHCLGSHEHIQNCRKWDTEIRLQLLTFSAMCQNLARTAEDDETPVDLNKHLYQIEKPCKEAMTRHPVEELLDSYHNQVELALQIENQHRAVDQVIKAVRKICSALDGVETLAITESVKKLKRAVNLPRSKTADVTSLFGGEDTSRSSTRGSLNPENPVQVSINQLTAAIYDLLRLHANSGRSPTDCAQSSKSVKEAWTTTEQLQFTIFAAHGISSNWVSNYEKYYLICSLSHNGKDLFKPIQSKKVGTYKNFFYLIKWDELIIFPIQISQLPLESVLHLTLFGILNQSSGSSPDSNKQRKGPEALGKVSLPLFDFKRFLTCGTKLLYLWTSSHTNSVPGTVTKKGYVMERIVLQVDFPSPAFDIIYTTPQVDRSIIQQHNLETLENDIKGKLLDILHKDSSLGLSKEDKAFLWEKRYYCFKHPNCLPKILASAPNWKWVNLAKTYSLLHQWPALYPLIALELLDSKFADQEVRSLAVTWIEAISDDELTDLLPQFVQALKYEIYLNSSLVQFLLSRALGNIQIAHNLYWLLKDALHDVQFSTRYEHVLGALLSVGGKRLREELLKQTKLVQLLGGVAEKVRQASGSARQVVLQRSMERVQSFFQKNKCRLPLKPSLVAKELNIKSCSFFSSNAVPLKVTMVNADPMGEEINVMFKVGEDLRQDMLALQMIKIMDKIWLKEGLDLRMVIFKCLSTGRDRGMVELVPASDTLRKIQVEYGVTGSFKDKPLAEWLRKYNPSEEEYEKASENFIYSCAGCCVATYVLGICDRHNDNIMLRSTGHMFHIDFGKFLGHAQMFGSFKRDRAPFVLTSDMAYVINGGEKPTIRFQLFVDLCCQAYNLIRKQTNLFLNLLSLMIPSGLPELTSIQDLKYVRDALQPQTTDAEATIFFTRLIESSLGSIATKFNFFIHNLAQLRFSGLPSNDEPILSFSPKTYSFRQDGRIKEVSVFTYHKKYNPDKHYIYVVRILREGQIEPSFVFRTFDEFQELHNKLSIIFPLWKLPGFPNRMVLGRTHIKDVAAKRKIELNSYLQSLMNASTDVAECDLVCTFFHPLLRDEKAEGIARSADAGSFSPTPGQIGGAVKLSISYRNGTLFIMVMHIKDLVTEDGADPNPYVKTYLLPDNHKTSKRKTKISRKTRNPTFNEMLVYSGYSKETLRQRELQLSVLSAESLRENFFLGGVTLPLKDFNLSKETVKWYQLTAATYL

off-target kinases (Homo sapiens, UniProt P32298), sequence (P32298 whole entry): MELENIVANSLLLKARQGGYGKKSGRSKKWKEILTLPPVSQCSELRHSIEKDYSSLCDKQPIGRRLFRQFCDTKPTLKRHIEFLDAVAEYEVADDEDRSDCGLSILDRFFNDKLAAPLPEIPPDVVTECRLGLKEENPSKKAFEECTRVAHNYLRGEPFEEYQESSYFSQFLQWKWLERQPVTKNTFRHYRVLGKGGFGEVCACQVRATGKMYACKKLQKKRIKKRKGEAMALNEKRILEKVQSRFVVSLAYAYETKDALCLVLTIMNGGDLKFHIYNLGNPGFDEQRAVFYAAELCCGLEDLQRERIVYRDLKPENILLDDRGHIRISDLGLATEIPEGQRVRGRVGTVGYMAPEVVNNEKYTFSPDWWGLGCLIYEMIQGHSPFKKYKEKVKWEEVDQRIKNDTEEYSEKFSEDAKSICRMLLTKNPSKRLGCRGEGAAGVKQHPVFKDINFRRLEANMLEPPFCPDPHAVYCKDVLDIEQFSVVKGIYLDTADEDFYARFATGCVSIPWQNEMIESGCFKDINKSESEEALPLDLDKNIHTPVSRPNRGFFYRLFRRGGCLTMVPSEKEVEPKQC
off-target kinases (Homo sapiens, UniProt Q8IU85), sequence (Q8IU85 whole entry): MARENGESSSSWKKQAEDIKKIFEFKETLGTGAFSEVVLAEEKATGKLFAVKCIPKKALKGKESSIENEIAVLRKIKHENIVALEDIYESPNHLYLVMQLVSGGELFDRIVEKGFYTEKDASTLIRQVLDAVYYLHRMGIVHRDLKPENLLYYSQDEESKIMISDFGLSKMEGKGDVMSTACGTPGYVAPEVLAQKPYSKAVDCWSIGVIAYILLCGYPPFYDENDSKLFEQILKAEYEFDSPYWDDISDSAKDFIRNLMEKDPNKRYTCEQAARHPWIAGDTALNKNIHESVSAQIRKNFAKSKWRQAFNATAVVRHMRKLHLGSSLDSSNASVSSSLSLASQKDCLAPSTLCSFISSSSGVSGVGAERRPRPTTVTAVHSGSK
off-target kinases (Homo sapiens, UniProt O43353), sequence (O43353 whole entry): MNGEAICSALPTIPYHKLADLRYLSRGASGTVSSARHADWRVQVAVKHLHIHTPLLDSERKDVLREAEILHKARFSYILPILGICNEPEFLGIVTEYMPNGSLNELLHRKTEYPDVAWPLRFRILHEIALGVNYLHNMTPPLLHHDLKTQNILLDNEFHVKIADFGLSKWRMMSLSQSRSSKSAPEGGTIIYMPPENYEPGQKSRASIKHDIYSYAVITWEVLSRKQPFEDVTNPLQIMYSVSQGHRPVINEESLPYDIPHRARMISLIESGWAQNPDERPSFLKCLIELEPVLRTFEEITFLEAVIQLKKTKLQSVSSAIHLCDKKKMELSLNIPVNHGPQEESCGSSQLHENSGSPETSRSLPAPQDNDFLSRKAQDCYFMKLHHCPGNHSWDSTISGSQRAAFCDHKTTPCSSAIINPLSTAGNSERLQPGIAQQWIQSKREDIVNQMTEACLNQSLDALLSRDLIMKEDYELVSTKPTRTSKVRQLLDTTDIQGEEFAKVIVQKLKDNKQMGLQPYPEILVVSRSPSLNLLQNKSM
off-target kinases (Homo sapiens, UniProt P54646), sequence (P54646 whole entry): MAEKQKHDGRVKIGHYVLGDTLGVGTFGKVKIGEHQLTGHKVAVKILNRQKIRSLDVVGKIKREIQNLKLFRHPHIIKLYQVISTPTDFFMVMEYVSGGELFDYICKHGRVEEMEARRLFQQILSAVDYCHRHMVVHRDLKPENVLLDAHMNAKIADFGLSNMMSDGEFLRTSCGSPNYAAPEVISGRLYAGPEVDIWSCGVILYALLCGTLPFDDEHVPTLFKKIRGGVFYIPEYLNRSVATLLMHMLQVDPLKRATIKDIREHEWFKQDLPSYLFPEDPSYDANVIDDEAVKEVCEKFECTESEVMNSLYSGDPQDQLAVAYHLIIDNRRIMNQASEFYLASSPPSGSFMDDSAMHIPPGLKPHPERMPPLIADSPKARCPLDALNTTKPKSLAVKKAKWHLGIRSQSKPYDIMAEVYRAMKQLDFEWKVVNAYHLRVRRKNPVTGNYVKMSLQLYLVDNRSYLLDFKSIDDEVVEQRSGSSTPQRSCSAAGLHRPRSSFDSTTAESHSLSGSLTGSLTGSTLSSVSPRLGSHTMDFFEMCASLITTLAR
off-target kinases (Homo sapiens, UniProt Q9Y6E0), sequence (Q9Y6E0 whole entry): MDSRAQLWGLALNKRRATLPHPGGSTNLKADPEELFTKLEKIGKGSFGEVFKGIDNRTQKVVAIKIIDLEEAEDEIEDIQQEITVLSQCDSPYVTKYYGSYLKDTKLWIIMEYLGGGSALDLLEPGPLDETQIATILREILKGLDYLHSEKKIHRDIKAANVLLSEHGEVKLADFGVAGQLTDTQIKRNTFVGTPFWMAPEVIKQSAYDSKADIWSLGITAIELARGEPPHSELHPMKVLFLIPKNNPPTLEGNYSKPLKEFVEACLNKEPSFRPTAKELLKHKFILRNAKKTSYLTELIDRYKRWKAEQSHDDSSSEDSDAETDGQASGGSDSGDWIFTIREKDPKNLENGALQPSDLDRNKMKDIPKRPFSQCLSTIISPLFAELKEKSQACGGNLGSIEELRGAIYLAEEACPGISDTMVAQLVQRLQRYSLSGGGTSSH
off-target kinases (Homo sapiens, UniProt P37023), sequence (P37023 22-503): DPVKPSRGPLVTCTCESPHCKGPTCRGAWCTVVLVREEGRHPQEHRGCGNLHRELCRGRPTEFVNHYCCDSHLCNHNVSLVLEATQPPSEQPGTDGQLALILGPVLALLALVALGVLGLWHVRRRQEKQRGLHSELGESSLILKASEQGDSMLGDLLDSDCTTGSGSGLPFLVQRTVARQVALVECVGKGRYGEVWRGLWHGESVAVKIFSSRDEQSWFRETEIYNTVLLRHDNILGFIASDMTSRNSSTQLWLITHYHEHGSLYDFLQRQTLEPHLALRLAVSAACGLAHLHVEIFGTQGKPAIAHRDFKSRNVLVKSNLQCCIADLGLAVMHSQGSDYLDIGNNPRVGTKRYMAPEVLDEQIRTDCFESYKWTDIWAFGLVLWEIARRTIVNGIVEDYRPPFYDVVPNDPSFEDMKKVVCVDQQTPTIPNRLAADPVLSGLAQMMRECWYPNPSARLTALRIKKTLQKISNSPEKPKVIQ

`N#Cc1cc(-c2ncnc(Nc3ccc(N4CCN(C5COC5)CC4)cc3)n2)ccc1OC1CCOCC1` [Compound 1, 5-(4-((4-(4-(oxetan-3-yl)piperazin-1-yl)phenyl)amino)-1,3,5-triazin-2-yl)-2-((tetrahydro-2H-pyran-4-yl)oxy)benzonitrile] gave an inhibition ([1]; read-out: % Inhibition 1) of 7%, an inhibition ([1]; read-out: % Inhibition 2) of 9% and an inhibition ([1]; read-out: % Inhibition Avg) of 8%. It also gave an inhibition ([2]; read-out: % Inhibition 1) of 12%, an inhibition ([2]; read-out: % Inhibition 2) of 13% and an inhibition ([2]; read-out: % Inhibition Avg) of 12%. It also gave an inhibition ([3]; read-out: % Inhibition 1) of -5%, an inhibition ([3]; read-out: % Inhibition 2) of 8% and an inhibition ([3]; read-out: % Inhibition Avg) of 1%. The inhibition ([4]; read-out: % Inhibition 1) was 10%, the inhibition ([4]; read-out: % Inhibition 2) was 9% and the inhibition ([4]; read-out: % Inhibition Avg) was 10%. The inhibition ([5]; read-out: % Inhibition 1) was 84%, the inhibition ([5]; read-out: % Inhibition 2) was 86% and the inhibition ([5]; read-out: % Inhibition Avg) was 85%. The “% Inhibition 1” value [6] was −4%, the “% Inhibition 2” value [6] was −5% and the “% Inhibition Avg” value [6] was −5%. It also gave an inhibition ([7]; read-out: % Inhibition 1) of 33%, an inhibition ([7]; read-out: % Inhibition 2) of 38% and an inhibition ([7]; read-out: % Inhibition Avg) of 35%. The inhibition ([8]; AMPK (A2/B2/G1), LanthaScreen Binding, read-out: % Inhibition 1) was 35%, the inhibition ([8]; AMPK (A2/B2/G1), LanthaScreen Binding, read-out: % Inhibition 2) was 35% and the inhibition ([8]; AMPK (A2/B2/G1), LanthaScreen Binding, read-out: % Inhibition Avg) was 35%. For the same molecule, the inhibition ([8]; AMPK (A2/B2/G2), LanthaScreen Binding, read-out: % Inhibition 1) was 44%, the inhibition ([8]; AMPK (A2/B2/G2), LanthaScreen Binding, read-out: % Inhibition 2) was 45% and the inhibition ([8]; AMPK (A2/B2/G2), LanthaScreen Binding, read-out: % Inhibition Avg) was 45%. It also gave an inhibition ([8]; AMPK A2/B1/G1, ATP Km app, ZLYTE, read-out: % Inhibition 1) of 47%, an inhibition ([8]; AMPK A2/B1/G1, ATP Km app, ZLYTE, read-out: % Inhibition 2) of 46% and an inhibition ([8]; AMPK A2/B1/G1, ATP Km app, ZLYTE, read-out: % Inhibition Avg) of 46%. It also gave an inhibition ([9]; read-out: % Inhibition 1) of 6%, an inhibition ([9]; read-out: % Inhibition 2) of 3% and an inhibition ([9]; read-out: % Inhibition Avg) of 4%. The “% Inhibition 1” value [10] was −7%, the “% Inhibition 2” value [10] was −9% and the “% Inhibition Avg” value [10] was −8%.
